Here are results for two compounds from patent US12421209B2, “Compounds” (Hoffmann-La Roche Inc., priority 2021, dated 2025).

By IC50 is commonly meant the concentration at which inhibition is half-maximal.

Type in all cases: cell-based
For test [1], the target named is T1, hERG channels (Homo sapiens, UniProt Q12809).
T1 construct: Evotec (cryopreserved) ATCC PTA-6812; host or cells: CHO (Chinese hamster ovary) cells
The experiment in a line: hERG screening assay (automated patch clamp, CHO crelox hERG cell line). As to conditions: CHO-hERG cells, whole-cell patch clamp at 35-37° C. The text has this: The CHO crelox hERG cell line (ATCC reference Nr. PTA-6812, female Chinese hamster cells) was generated and validated at Roche. Ready-to-use frozen instant CHO-hERG cells were cryopreserved at Evotec (Germany) and used directly in the experiments.
The extracellular solution contains (in mM): NaCl 150; KCl 4; CaCl2) 1; MgCl2 1; HEPES 10; pH 7.2-7.4 with NaOH, osmolarity 290-330 mOsm. The internal solution contains (in mM): KCl, 10; KF, 100; NaCl, 10; HEPES, 10; EGTA, 20; pH=7.0-7.4 with KOH, osmolarity 260-300 mOsm.
The effects of a compound on hERG K+-currents parameters will be evaluated at 2 concentrations in at least 4 cells.
The hERG test is performed using automated patch clamp system SynchroPatch® 384 (Nanion Technologies GmbH, Germany). K+ currents are measured with the patch-voltage-clamp technique in the whole-cell configuration at 35-37° C.
Cells were held at a resting voltage of −80 mV and they were stimulated by a voltage pattern shown in FIG. 1 to activate hERG channels and conduct outward IKhERG current, at a stimulation frequency of 0.1 Hz (6 bpm)
The amplitudes of IKhERG were recorded in each concentration of drug and they were compared to the vehicle control values (taken as 100%) to define fractional blocks. The concentration-response data were fitted with the following relationship: […]
On the technique in general: hERG is a cardiac potassium channel; its block is linked to QT prolongation.

The target in test [2] is T2, NLRP3 (Homo sapiens, UniProt Q96P20). The experiment in a line: THP-1 cells pyroptosis assay (LPS priming, nigericin, resazurin read-out). More on the design: Seed THP-1 cells (25,000 cells/well) containing 1.0 μg/ml LPS; host or cells: THP-1 cells. As to conditions: 1.0 μg/ml LPS, 5 μM nigericin. The method, then:
THP-1 cells (ATCC #TIB-202) were grown in RPMI containing L-glutamine (Gibco #11835) supplemented with 1 mM sodium pyruvate (Sigma #S8636) and penicillin (100 units/ml)/streptomycin (0.1 mg/ml) (Sigma #P4333) in 10% Fetal Bovine Serum (FBS) (Sigma #F0804). The cells were routinely passaged and grown to confluency (˜10^6 cells/ml). On the day of the experiment, THP-1 cells were harvested and resuspended into RPMI medium (without FBS). The cells were then counted and viability (>90%) checked by Trypan blue (Sigma #T8154). Appropriate dilutions were made to give a concentration of 625,000 cells/ml. To this diluted cell solution was added LPS (Sigma #L4524) to give a lug/ml Final Assay Concentration (FAC). 40 μl of the final preparation was aliquoted into each well of a 96-well plate. The plate thus prepared was used for compound screening.
The following method step-by-step assay was followed for compound screening. • 1. Seed THP-1 cells (25,000 cells/well) containing 1.0 μg/ml LPS in 40 μl of RPMI medium (without FBS) in 96-well, black walled, clear bottom cell culture plates coated with poly-D-lysine (VWR #734-0317) • 2. Add 5 μl compound (8 points half-log dilution, with 10 μM top dose) or vehicle (DMSO 0.1% FAC) to the appropriate wells • 3. Incubate for 3 hours at 37° C., 5% CO2 • 4. Add 5 μl nigericin (Sigma #N7143) (FAC 5 μM) to all wells • 5. Incubate for 1 hr at 37° C., 5% CO2 • 6. At the end of the incubation period, spin plates at 300×g for 3 mins and remove supernatant • 7. Then add 50 μl of resazurin (Sigma #R7017) (FAC 100 μM resazurin in RPMI medium without FBS) and incubate plates for a further 1-2 hours at 37° C. and 5% CO2 • 8. Plates were read in an Envision reader at Ex 560 nm and Em 590 nm • 9. IC50 data is fitted to a non-linear regression equation (log inhibitor vs response-variable slope 4-parameters)
(In general: Resazurin is reduced to fluorescent resorufin, in cell work by metabolically active cells.)

Test [3] addresses T2, NLRP3. The experiment in a line: Human whole blood IL-1β release assay (LPS, nigericin, AlphaLisa). More on the design: Human whole blood in Li-heparin tubes was obtained from healthy donors; from tissue; host or cells: human whole blood from healthy donors. The following applies: 10 μM nigericin. How it is done:
For systemic delivery, the ability to inhibit NLRP3 when the compounds are present within the bloodstream is of great importance. For this reason, the NLRP3 inhibitory activity of a number of compounds in human whole blood was investigated in accordance with the following protocol.
Human whole blood in Li-heparin tubes was obtained from healthy donors from a volunteer donor panel. • 1. Plate out 80 μl of whole blood containing lug/ml of LPS in 96-well, clear bottom cell culture plate (Corning #3585) • 2. Add 10 μl compound (8 points half-log dilution with 10 μM top dose) or vehicle (DMSO 0.1% FAC) to the appropriate wells • 3. Incubate for 3 hours at 37° C., 5% CO2 • 4. Add 10 μl nigericin (Sigma #N7143) (10 μM FAC) to all wells • 5. Incubate for 1 hr at 37° C., 5% CO2 • 6. At the end of the incubation period, spin plates at 300×g for 5 mins to pellet cells and remove 20 μl of supernatant and add to 96-well v-bottom plates for IL-1β analysis (note: these plates containing the supernatants can be stored at −80° C. to be analysed at a later date) • 7. IL-1β was measured according to the manufacturer protocol (Perkin Elmer-AlphaLisa IL-1 Kit AL220F-5000) • 8. IC50 data is fitted to a non-linear regression equation (log inhibitor vs response-variable slope 4-parameters)
(In general: Alpha assays give light when donor and acceptor beads are brought close together.)

A value given as a limit tells only on which side of the number the result lay.

T2 sequence (Q96P20 whole entry): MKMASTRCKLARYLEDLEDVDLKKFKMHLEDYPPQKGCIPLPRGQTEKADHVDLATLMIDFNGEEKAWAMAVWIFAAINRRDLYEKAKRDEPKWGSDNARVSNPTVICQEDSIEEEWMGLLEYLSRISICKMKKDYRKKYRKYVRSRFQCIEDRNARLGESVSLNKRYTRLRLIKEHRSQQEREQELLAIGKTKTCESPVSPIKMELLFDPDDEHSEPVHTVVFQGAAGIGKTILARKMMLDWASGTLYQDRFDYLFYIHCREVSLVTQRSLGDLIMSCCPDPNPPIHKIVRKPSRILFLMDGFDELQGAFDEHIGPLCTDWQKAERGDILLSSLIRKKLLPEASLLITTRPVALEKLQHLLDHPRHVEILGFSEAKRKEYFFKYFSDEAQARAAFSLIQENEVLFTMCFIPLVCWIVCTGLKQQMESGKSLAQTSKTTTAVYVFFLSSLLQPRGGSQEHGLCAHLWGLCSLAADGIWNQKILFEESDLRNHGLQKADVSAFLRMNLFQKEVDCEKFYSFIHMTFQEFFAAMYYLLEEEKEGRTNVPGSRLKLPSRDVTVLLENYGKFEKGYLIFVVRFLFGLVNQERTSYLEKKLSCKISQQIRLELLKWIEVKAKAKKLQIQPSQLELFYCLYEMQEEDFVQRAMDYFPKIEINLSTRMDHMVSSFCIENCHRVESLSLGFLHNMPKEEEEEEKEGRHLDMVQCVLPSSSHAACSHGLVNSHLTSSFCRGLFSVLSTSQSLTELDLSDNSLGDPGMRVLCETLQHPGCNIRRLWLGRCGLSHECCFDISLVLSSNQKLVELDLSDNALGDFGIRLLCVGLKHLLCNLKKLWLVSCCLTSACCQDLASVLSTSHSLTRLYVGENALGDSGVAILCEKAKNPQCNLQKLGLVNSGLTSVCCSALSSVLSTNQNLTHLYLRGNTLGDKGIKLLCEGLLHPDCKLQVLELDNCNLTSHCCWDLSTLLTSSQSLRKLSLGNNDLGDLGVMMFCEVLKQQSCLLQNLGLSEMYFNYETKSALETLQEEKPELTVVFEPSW
T1 sequence (Q12809 whole entry): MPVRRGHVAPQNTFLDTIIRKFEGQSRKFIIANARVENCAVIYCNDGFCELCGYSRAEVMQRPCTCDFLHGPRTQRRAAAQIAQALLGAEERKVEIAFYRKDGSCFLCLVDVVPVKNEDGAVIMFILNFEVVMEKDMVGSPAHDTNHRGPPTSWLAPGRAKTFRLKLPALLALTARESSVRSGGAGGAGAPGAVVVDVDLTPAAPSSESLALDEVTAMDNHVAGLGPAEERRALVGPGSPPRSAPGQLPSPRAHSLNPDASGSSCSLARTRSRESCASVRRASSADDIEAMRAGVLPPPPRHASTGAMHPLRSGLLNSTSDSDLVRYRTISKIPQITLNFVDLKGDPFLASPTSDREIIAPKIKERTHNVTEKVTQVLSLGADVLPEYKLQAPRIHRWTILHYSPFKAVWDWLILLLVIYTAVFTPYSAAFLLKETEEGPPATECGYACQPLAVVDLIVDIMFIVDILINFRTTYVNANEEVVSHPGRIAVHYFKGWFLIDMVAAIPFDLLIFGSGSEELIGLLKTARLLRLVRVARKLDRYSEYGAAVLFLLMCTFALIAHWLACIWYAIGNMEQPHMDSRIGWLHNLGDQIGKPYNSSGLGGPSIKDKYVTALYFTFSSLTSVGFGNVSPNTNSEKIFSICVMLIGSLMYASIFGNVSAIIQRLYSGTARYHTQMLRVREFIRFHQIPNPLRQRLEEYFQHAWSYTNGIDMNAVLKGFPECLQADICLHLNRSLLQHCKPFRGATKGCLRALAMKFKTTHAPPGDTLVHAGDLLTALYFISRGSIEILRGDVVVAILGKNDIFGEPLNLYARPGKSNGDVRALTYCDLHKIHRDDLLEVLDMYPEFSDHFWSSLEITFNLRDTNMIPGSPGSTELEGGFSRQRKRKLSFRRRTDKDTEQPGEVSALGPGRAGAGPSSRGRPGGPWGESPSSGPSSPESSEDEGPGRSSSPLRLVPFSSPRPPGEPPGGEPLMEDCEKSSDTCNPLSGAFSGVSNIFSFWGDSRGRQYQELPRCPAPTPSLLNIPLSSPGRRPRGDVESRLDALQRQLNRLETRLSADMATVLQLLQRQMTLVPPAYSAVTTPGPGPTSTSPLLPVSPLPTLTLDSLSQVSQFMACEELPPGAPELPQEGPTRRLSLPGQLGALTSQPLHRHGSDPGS

For the compound `CCN1CCC[C@@H](Nc2nnc(-c3ccc(C(F)(F)F)cc3O)c(C)n2)C1` [Example 4, 2-[3-[[(3R)-1-Ethyl-3-piperidyl]amino]-5-methyl-1,2,4-triazin-6-yl]-5-(trifluoromethyl) phenol], the 50% inhibitory concentration (IC50) is over 10000 nM in test [1], 1.7 nM in test [2] and 5.4 nM in test [3].
On to `CCN1CCC[C@@H](Nc2nnc(-c3ccc4c(c3O)CCO4)c(C)n2)C1` [Example 7, 5-[3-[[(3R)-1-Ethyl-3-piperidyl]amino]-5-methyl-1,2,4-triazin-6-yl]-2,3-dihydrobenzofuran-4-ol], for which the values for the IC50 in test [1], in test [2] and in test [3] were over 20000 nM, 1.1 nM and 3.7 nM, respectively.
